In US6579859B1 (priority 2002, dated 2003):
“And” between values parts separate entries of the source, which are not always exact repeats. Equal entries are not always repeated.

Legend:
Format in all cases: cell-based
[1] = system: Tetrahymena (Trophozoite); assay: Tetrahymena toxicity test (minimal lethal concentration); conditions: lowest concentration at which all Tetrahymena were dead in all replicate wells; replicate tests
Description: Tetrahymena cells from a commercial source were grown in PCB broth in a tissue culture flask. The cells were removed from the broth via centrifuge and suspended in Osterhout-tris buffer at a concentration of no greater than 60 cells per 10 micro liters. A standard 96 well test plate comprising successive 50% dilutions of this cellular solution per row was prepared. Chemicals to be tested were added to 3 adjacent wells. Organism viability was tested via observation through an inverted microscope at time zero and every 24 hours thereafter. Tetrahymena were judged viable if they were motile or had active contractile vacuoles. All organisms in a well had to be dead to have a negative reading. A positive reading indicated all or some viable orgasms in a well. The minimal lethal concentration (MLC) of the test materials to Tetrahymena was the lowest toxicant concentration in which all Tetrahymena were dead in all replicate wells.

Acanthamoeba Trophozoite = assay: Acanthamoeba trophozoite toxicity test (minimal lethal concentration); conditions: 24 hours at 30°; all organisms dead in all replicate wells; replicate tests
Description: E. coli (ATCC #25922) grown in Difco Bacto nutrient agar and killed via UV light were used as nutrient for the Acanthamoeba. The killed E. coli were placed on a non-nutrient agar plate. 1-2 drops of washed Acanthamoeba Trophozoite (from Tennessee Technological University) were placed on the plate and incubated for 2-3 days at 30° C. An inoculum was prepared by placing about 2 ml of Osterhout-tris buffer onto the 2-3 day old plates. A sterile loop was used to dislodge the Trophozoites from the agar surface. The liquid was transferred to a sterile tube and diluted 1:10. 10 micro liters were placed on a slide and counted to confirm about 90 Acanthamoeba per 10 micro liters for the test. This solution was placed in a standard 96 well test plate with successive 50% dilutions per row. A 400 ppm solution of toxicants in Osterhout-tris buffer was prepared. Toxicants were added to 3 adjacent wells for testing. To avoid cross contamination, a well was skipped between each 3 replicate wells in every row and every other row skipped on the plate. The plate was incubated at 30° for 24 hours. An inverted microscope was used to observe the organisms in the wells. Cytoplasm will move in live amoeba and/or the contractile vacuoles will remain active. All organisms had to be dead in a well to have a negative reading. […]

Acanthamoeba (Cyst) = assay: Acanthamoeba cyst toxicity test (minimal lethal concentration); conditions: 24 hours exposure at 30° C.; no trophozoites after 6 days; replicate tests
Description: E. coli (ATCC#25922) were grown in Difaco Bacto nutrient agar and killed via UV light for use as nutrient for the Acanthamoeba cysts. The killed E. coli were placed on a non-nutrient agar plate. 1-2 drops of washed Acanthamoeba (from Tennessee Technological University) from a 2-3 day old plate were placed on the plate and incubated for 2-3 days at 30° C. A biofilm was prepared by placing approximately 9 milliliters of the active E. coli culture in sterile coplin jars containing 4 cover slips and incubating over night. The cover slips were rinsed in Osterhout-tris buffer and placed on 2-3 day old Acanthamoeba trophozoite plates and incubated for 7 days. In 7 days, the trophozoites will exhaust the E. coli nutrients and form cysts. The cover slips were soaked in approximately 9 milliliters of Osterhout-tris buffer and the cover slips placed in coplin jars. 50 ppm dilutions of the biocides to be tested were added to the coplin jars containing the cover slips with cysts and the coplin jars were incubated at 30° C. for 24 hours.
After 24 hours, the test solutions were removed and the cover slips soaked in Osterhout-tris buffer for 30 minutes. The cover slips were placed on non-nutrient agar plates with live E. coli. The plates were observed using an inverted microscope every day for 6 days to see if trophozoites were present. If trophozoites appeared, the test was positive. […]

## OC[P+](CO)(CO)CO.[Cl-] [THPS, Tetra kis hydroxymethyl phosphonium chloride, reference compound]
[1]
  Minimal Lethal Concentration, Tetrahymena (Trophozoite): 28 µg/mL
Acanthamoeba Trophozoite
  Minimal Lethal Concentration, Acanthanoeba (Trophozoite): 56 µg/mL
Acanthamoeba (Cyst)
  Minimal Lethal Concentration, Acanthamoeba (Cyst): >50 µg/mL

## CCCCCCCCCCCCCC[P+](CCCC)(CCCC)CCCC.[Cl-] [TBTDPC, Tri-n-butyl-tetradecylphosphonium chloride]
[1]
  Minimal Lethal Concentration, Tetrahymena (Trophozoite): 2.5 µg/mL
Acanthamoeba Trophozoite
  Minimal Lethal Concentration, Acanthanoeba (Trophozoite): 2.5 µg/mL
Acanthamoeba (Cyst)
  Minimal Lethal Concentration, Acanthamoeba (Cyst): 25 μg/ml (4×) and 40 μg/ml
